Assay results taken from paper PMC9229919, “4-Aminoquinoline-Based Adamantanes as Potential Anticholinesterase Agents in Symptomatic Treatment of Alzheimer’s Disease” (Pharmaceutics, 2022).
Read-outs that look alike come from different tables or passages of the source.

Assays:
[1] = Reverse-phase thin-layer chromatographic lipophilicity (RF, RM0); type: physicochemical; settings: for RM0: intercept of RM = RM0 + bC; for b: slope of RM = RM0 + bC; for RF, Methanol/Water/Hydrochloric acid (conc.), mobile phase I / RF, Dioxane/Water/Hydrochloric acid (conc.), mobile phase II / RF, Methanol/Water/Hydrochloric acid (conc.), mobile phase II / RF, Acetone/Water/Hydrochloric acid (conc.), mobile phase III / RF, Dioxane/Water/Hydrochloric acid (conc.), mobile phase III / RF, Methanol/Water/Hydrochloric acid (conc.), mobile phase III / RF, Dioxane/Water/Hydrochloric acid (conc.), mobile phase IV / RF, Acetone/Water/Hydrochloric acid (conc.), mobile phase IV / RF, Methanol/Water/Hydrochloric acid (conc.), mobile phase IV / RF, Acetone/Water/Hydrochloric acid (conc.), mobile phase IX / RF, Methanol/Water/Hydrochloric acid (conc.), mobile phase IX / RF, Dioxane/Water/Hydrochloric acid (conc.), mobile phase V / RF, Acetone/Water/Hydrochloric acid (conc.), mobile phase V / RF, Methanol/Water/Hydrochloric acid (conc.), mobile phase V / RF, Dioxane/Water/Hydrochloric acid (conc.), mobile phase VI / RF, Acetone/Water/Hydrochloric acid (conc.), mobile phase VI / RF, Methanol/Water/Hydrochloric acid (conc.), mobile phase VI / RF, Acetone/Water/Hydrochloric acid (conc.), mobile phase VII / RF, Methanol/Water/Hydrochloric acid (conc.), mobile phase VII / RF, Acetone/Water/Hydrochloric acid (conc.), mobile phase VIII / RF, Methanol/Water/Hydrochloric acid (conc.), mobile phase VIII: RP-18 silica; for RF, Methanol/Water/Hydrochloric acid (conc.), mobile phase I: I = 90%MeOH/5%H2O/5%HCl; for RF, Dioxane/Water/Hydrochloric acid (conc.), mobile phase II: II = 80%Dioxane/15%H2O/5%HCl; for RF, Methanol/Water/Hydrochloric acid (conc.), mobile phase II: II = 85%MeOH/10%H2O/5%HCl; for RF, Acetone/Water/Hydrochloric acid (conc.), mobile phase III: III = 70%AC/25%H2O/5%HCl; for RF, Dioxane/Water/Hydrochloric acid (conc.), mobile phase III: III = 70%Dioxane/25%H2O/5%HCl; for RF, Methanol/Water/Hydrochloric acid (conc.), mobile phase III: III = 80%MeOH/15%H2O/5%HCl; for RF, Dioxane/Water/Hydrochloric acid (conc.), mobile phase IV: IV = 60%Dioxane/35%H2O/5%HCl; for RF, Acetone/Water/Hydrochloric acid (conc.), mobile phase IV: IV = 65%AC/30%H2O/5%HCl; for RF, Methanol/Water/Hydrochloric acid (conc.), mobile phase IV: IV = 75%MeOH/20%H2O/5%HCl; for RF, Acetone/Water/Hydrochloric acid (conc.), mobile phase IX: IX = 40%AC/55%H2O/5%HCl; for RF, Methanol/Water/Hydrochloric acid (conc.), mobile phase IX: IX = 50%MeOH/45%H2O/5%HCl; for RF, Dioxane/Water/Hydrochloric acid (conc.), mobile phase V: V = 50%Dioxane/45%H2O/5%HCl; for RF, Acetone/Water/Hydrochloric acid (conc.), mobile phase V: V = 60%AC/35%H2O/5%HCl; for RF, Methanol/Water/Hydrochloric acid (conc.), mobile phase V: V = 70%MeOH/25%H2O/5%HCl; for RF, Dioxane/Water/Hydrochloric acid (conc.), mobile phase VI: VI = 40%Dioxane/55%H2O/5%HCl; for RF, Acetone/Water/Hydrochloric acid (conc.), mobile phase VI: VI = 55%AC/40%H2O/5%HCl; for RF, Methanol/Water/Hydrochloric acid (conc.), mobile phase VI: VI = 65%MeOH/30%H2O/5%HCl; for RF, Acetone/Water/Hydrochloric acid (conc.), mobile phase VII: VII = 50%AC/45%H2O/5%HCl; for RF, Methanol/Water/Hydrochloric acid (conc.), mobile phase VII: VII = 60%MeOH/35%H2O/5%HCl; for RF, Acetone/Water/Hydrochloric acid (conc.), mobile phase VIII: VIII = 45%AC/50%H2O/5%HCl; for RF, Methanol/Water/Hydrochloric acid (conc.), mobile phase VIII: VIII = 55%MeOH/40%H2O/5%HCl
Procedure, shortened: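 Lipophilicity from RP-TLC retention at 22±2 °C over a 4.5 cm development distance. Eluents: organic modifier (methanol, acetone or dioxane), water and hydrochloric acid, methanol stepped by 10%. RM0 obtained from RF.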

[2] = biological target: T1, recombinant human AChE (Homo sapiens, UniProt P22303); assay: biochemical; type: biochemical; settings: for IS: IS = Ki(BChE)/Ki(AChE), IS > 1 selective to AChE
T1 construct: gift of Dr Florian Nachon (Armed Forces Biomedical Research Institute, Brétigny-sur-Orge, France)
Procedure, shortened: (§1)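 Modified Ellman assay with acetylthiocholine and DTNB in 0.1 M sodium phosphate pH 7.4 (enzymes diluted with 0.1% BSA), ≤0.2% DMSO, 25 °C. At least three inhibitor concentrations per substrate level; Ki,app from Hunter–Downs equation, Ki from y-intercept and inhibition type from Ki,app vs [S].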

[3] = biological target: T2, purified human BChE (Homo sapiens, UniProt P06276); assay: biochemical; type: biochemical
T2 construct: possibly also a gift of Dr Florian Nachon (the sentence is ambiguous)
Procedure, shortened: as §1

[4] = Ferric reducing antioxidant power (FRAP) assay; settings: mean ± standard error of three experiments;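 note: expressed as µM Fe2+ equivalents from an FeSO4·7H2O standard curve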
Procedure, shortened: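 Ferric-TPTZ reduction measured by absorbance at 593 nm after 60 min at 37 °C in pH 3.6 acetate-buffered TPTZ/FeCl3 reagent, with test compounds at 10 and 100 µM. FRAP values calculated from an Fe2SO4·7H2O standard curve. Data from three independent experiments.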

[5] = Acetone/Water/Hydrochloric acid (conc.)
[6] = Dioxane/Water/Hydrochloric acid (conc.)
[7] = Methanol/Water/Hydrochloric acid (conc.)
[8] = ± standard error, 25 °C, ATCh substrate, read-out: Ki AChE
[9] = ± standard error, 25 °C, ATCh substrate, read-out: Ki BChE

T2 sequence (P06276 29-602): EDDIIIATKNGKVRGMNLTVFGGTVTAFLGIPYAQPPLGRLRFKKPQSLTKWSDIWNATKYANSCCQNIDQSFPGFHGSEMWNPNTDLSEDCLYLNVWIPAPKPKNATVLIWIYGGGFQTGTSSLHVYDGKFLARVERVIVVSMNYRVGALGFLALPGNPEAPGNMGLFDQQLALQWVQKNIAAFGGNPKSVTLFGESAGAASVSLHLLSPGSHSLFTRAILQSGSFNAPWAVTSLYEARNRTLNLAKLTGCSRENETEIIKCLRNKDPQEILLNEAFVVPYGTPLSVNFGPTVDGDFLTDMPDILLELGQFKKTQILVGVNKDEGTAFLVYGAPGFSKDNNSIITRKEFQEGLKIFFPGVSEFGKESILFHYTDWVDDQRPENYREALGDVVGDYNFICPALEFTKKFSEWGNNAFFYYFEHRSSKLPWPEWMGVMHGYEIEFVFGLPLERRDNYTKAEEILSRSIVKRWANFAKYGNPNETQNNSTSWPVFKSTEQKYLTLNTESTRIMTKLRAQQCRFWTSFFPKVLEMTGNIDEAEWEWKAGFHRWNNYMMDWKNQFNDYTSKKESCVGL
T1 sequence (P22303 32-614): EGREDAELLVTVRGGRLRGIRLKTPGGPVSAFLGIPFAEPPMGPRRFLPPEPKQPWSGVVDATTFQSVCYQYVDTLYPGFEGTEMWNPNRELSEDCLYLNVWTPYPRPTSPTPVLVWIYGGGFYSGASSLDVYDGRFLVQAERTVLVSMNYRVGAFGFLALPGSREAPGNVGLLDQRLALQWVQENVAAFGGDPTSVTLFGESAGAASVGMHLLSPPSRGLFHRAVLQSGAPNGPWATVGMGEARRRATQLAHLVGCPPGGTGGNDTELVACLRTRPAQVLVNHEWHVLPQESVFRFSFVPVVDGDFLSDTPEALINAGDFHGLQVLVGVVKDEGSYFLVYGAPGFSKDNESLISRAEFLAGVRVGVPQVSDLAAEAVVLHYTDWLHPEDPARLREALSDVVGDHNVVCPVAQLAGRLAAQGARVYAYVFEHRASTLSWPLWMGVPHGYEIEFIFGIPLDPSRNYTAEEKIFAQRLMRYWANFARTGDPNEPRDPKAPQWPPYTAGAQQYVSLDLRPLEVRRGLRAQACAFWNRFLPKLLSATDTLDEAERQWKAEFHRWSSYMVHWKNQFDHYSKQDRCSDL

Row | Compound | RM0 [1, 5] | b [1, 5] | RM0 [1, 6] | b [1, 6] | RM0 [1, 7] | b [1, 7] | RF, Methanol/Water/Hydrochloric acid (conc.), mobile phase I [1] | RF, Dioxane/Water/Hydrochloric acid (conc.), mobile phase II [1] | RF, Methanol/Water/Hydrochloric acid (conc.), mobile phase II [1] | RF, Acetone/Water/Hydrochloric acid (conc.), mobile phase III [1] | RF, Dioxane/Water/Hydrochloric acid (conc.), mobile phase III [1] | RF, Methanol/Water/Hydrochloric acid (conc.), mobile phase III [1] | RF, Dioxane/Water/Hydrochloric acid (conc.), mobile phase IV [1] | RF, Acetone/Water/Hydrochloric acid (conc.), mobile phase IV [1] | RF, Methanol/Water/Hydrochloric acid (conc.), mobile phase IV [1] | RF, Acetone/Water/Hydrochloric acid (conc.), mobile phase IX [1] | RF, Methanol/Water/Hydrochloric acid (conc.), mobile phase IX [1] | RF, Dioxane/Water/Hydrochloric acid (conc.), mobile phase V [1] | RF, Acetone/Water/Hydrochloric acid (conc.), mobile phase V [1] | RF, Methanol/Water/Hydrochloric acid (conc.), mobile phase V [1] | other results
1 | CC(CCNCCC12CC3CC(CC(C3)C1)C2)Nc1ccnc2cc(Cl)ccc12 (stereo not drawn) [Compound 14] | 2.236 | 3.396 | 1.306 | 2.3979 | 3.293 | 4.124 | 0.67 | 0.78 | 0.62 | 0.53 | 0.69 | 0.45 | 0.66 | 0.5 | 0.42 | 0.08 | 0.03 | 0.45 | 0.38 | 0.34 | RF, Dioxane/Water/Hydrochloric acid (conc.), mobile phase VI [1]: 0.27; RF, Acetone/Water/Hydrochloric acid (conc.), mobile phase VI [1]: 0.33; RF, Methanol/Water/Hydrochloric acid (conc.), mobile phase VI [1]: 0.25; RF, Acetone/Water/Hydrochloric acid (conc.), mobile phase VII [1]: 0.25; RF, Methanol/Water/Hydrochloric acid (conc.), mobile phase VII [1]: 0.16; RF, Acetone/Water/Hydrochloric acid (conc.), mobile phase VIII [1]: 0.21; RF, Methanol/Water/Hydrochloric acid (conc.), mobile phase VIII [1]: 0.1; IS [2]: 0.1; Ki [2, 8]: 1.9 ± 0.1 µM; preference for BChE ([3]; BChE over AChE): 10 times; Ki [3, 9]: 0.15 ± 0.01 µM; FRAP ([4]; 10 µM compound): 7.6 ± 2.3 µM; FRAP ([4]; 100 µM compound): 86 ± 8 µM
2 | CC(CCNCC12CC3CC(CC(C3)C1)C2)Nc1ccnc2ccccc12 (stereo not drawn) [Compound 15] | 1.742 | 2.801 | 0.8903 | 1.797 | 2.31 | 3.062 | 0.71 | 0.74 | 0.67 | 0.6 | 0.7 | 0.54 | 0.7 | 0.55 | 0.51 | 0.15 | 0.11 | 0.51 | 0.45 | 0.45 | RF, Dioxane/Water/Hydrochloric acid (conc.), mobile phase VI [1]: 0.35; RF, Acetone/Water/Hydrochloric acid (conc.), mobile phase VI [1]: 0.4; RF, Methanol/Water/Hydrochloric acid (conc.), mobile phase VI [1]: 0.36; RF, Acetone/Water/Hydrochloric acid (conc.), mobile phase VII [1]: 0.35; RF, Methanol/Water/Hydrochloric acid (conc.), mobile phase VII [1]: 0.27; RF, Acetone/Water/Hydrochloric acid (conc.), mobile phase VIII [1]: 0.29; RF, Methanol/Water/Hydrochloric acid (conc.), mobile phase VIII [1]: 0.2; IS [2]: 0.9; Ki [2, 8]: 0.74 ± 0.03 µM; Ki [3, 9]: 0.65 ± 0.04 µM; FRAP ([4]; 10 µM compound): 9.3 ± 2.2 µM; FRAP ([4]; 100 µM compound): 224 ± 21 µM
3 | CC(CCNCCC12CC3CC(CC(C3)C1)C2)Nc1ccnc2ccccc12 (stereo not drawn) [Compound 16] | 1.94 | 3.086 | 0.9042 | 1.814 | 2.5841 | 3.345 | 0.7 | 0.74 | 0.64 | 0.59 | 0.7 | 0.51 | 0.7 | 0.54 | 0.5 | 0.12 | 0.09 | 0.5 | 0.44 | 0.42 | RF, Dioxane/Water/Hydrochloric acid (conc.), mobile phase VI [1]: 0.35; RF, Acetone/Water/Hydrochloric acid (conc.), mobile phase VI [1]: 0.39; RF, Methanol/Water/Hydrochloric acid (conc.), mobile phase VI [1]: 0.31; RF, Acetone/Water/Hydrochloric acid (conc.), mobile phase VII [1]: 0.33; RF, Methanol/Water/Hydrochloric acid (conc.), mobile phase VII [1]: 0.21; RF, Acetone/Water/Hydrochloric acid (conc.), mobile phase VIII [1]: 0.26; RF, Methanol/Water/Hydrochloric acid (conc.), mobile phase VIII [1]: 0.15; IS [2]: 0.7; Ki ([2]; log (Ki/µM AChE), read-out: Y Measured 1 log(ki)Ache (converted)): 0.52 µM; Ki [2, 8]: 0.52 ± 0.02 µM; Ki ([3]; logarithm of Ki in µM, BChE, dependent variable of the QSAR model, read-out: Y Measured 2 log(ki)Bche, log (Ki/µM BChE) (converted)): 0.38 µM; Ki [3, 9]: 0.38 ± 0.03 µM; FRAP ([4]; 10 µM compound): 4.1 ± 0.4 µM; FRAP ([4]; 100 µM compound): 46 ± 4 µM
